One data set addresses T1, HAase (Homo sapiens, UniProt P38567).
T1 construct: made in house
T1 sequence (P38567 36-482): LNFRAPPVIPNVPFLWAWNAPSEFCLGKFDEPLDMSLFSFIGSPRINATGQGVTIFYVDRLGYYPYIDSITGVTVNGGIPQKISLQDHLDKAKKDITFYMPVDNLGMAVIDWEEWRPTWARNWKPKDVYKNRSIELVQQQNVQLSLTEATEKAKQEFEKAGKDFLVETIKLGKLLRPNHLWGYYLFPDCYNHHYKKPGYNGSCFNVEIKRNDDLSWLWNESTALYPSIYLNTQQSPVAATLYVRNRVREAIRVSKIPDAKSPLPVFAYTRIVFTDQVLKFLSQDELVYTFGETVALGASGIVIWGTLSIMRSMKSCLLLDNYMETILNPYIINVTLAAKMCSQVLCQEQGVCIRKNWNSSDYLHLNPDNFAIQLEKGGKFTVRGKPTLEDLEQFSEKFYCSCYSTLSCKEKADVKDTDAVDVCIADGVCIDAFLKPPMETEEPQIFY
Kind of data set: Compatibility study of HAase and antibiotic in solution: HAase activity. The note with it: 15 min room temperature. The class given is biochemical.

Data set [1] is described as follows: Compatibility study of HAase and antibiotic in solution: appearance of the solution. In kind it is physicochemical. The note with it: 8 solutions of antibiotic (two concentrations) with HAase 150-6000 units/ml in physiological saline. How it is done:
The compatibility of HAase and an antibiotic was studied by preparing a solution comprising the two substances. A dry Meropenem power for injection was dissolved in physiological saline to give a concentration of 5 mg/ml and 50 mg/ml, and then HAase was added to give a final concentration of 150, 500, 2000, and 6000 units/ml respectively. After preparation, the solution was left to stand at room temperature for 15 min. The appearance of the solution was observed, and the concentration of HAase was determined.
The compatibility of HAase and an antibiotic was studied by preparing a solution comprising the two substances. A dry Ceftriaxone sodium power for injection was dissolved in physiological saline to give a concentration of 50 mg/ml and 250 mg/ml, and then HAase was added to give a final concentration of 150, 500, 2000, and 6000 units/ml respectively. After preparation, the solution was left to stand at room temperature for 15 min. The appearance of the solution was observed, and the concentration of HAase was determined.
The compatibility of HAase and an antibiotic was studied by preparing a solution comprising the two substances. A dry Azithromycin power for injection was dissolved in physiological saline to give a concentration of 10 mg/ml and 100 mg/ml, and then HAase was added to give a final concentration of 150, 500, 2000, and 6000 units/ml respectively. After preparation, the solution was left to stand at room temperature for 15 min. The appearance of the solution was observed, and the concentration of HAase was determined.
The compatibility of HAase and an antibiotic was studied by preparing a solution comprising the two substances. A dry Cefradine powder for injection was dissolved in physiological saline to give a concentration of 50 mg/ml and 250 mg/ml, and then HAase was added to give a final concentration of 150, 500, 2000, and 6000 units/ml respectively. After preparation, the solution was left to stand at room temperature for 15 min. The appearance of the solution was observed, and the concentration of HAase was determined.
The compatibility of HAase and an antibiotic was studied by preparing a solution comprising the two substances. A dry Teicoplanin powder for injection was dissolved in physiological saline to give a concentration of 10 mg/ml and 70 mg/ml, and then HAase was added to give a final concentration of 150, 500, 2000, and 6000 units/ml respectively. After preparation, the solution was left to stand at room temperature for 15 min. The appearance of the solution was observed, and the concentration of HAase was determined.
The compatibility of HAase and an antibiotic was studied by preparing a solution comprising the two substances. A dry Ceftazidime powder for injection was dissolved in physiological saline to give a concentration of 20 mg/ml and 200 mg/ml, and then HAase was added to give a final concentration of 150, 500, 2000, and 6000 units/ml respectively. After preparation, the solution was left to stand at room temperature for 15 min. The appearance of the solution was observed, and the concentration of HAase was determined.
The compatibility of HAase and an antibiotic was studied by preparing a solution comprising the two substances. A dry Ertapenem power for injection was dissolved in physiological saline to give a concentration of 30 mg/ml and 300 mg/ml, and then HAase was added to give a final concentration of 150, 500, 2000, and 6000 units/ml respectively. After preparation, the solution was left to stand at room temperature for 15 min. The appearance of the solution was observed, and the concentration of HAase was determined.
The compatibility of HAase and an antibiotic was studied by preparing a solution comprising the two substances. A dry Polymyxin B powder for injection was dissolved in physiological saline to give a concentration of 50,000 units/ml and 250,000 units/ml, and then HAase was added to give a final concentration of 150, 500, 2000, and 6000 units/ml respectively.

Data set [2] can be described thus: Pharmacokinetics of model antibiotics in mice: tail vein injection vs subcutaneous administration combined with recombinant human HAase. To be noted: for AUC(0-t): AUClast.
Description: (§1) The difference in pharmacokinetics between subcutaneous administration of antibiotics combined with recombinant human HAase and traditional intravenous administration of antibiotics in mice was studied. Ceftriaxone, Ceftazidime, Ertapenem, and Teicoplanin were used as model antibiotics. A total of 48 ICR male mice were used in each antibiotic model, and divided into two groups, each having 24 mice. The two groups include a tail vein injection group, and a subcutaneous administration group of antibiotics combined with recombinant human HAase. The single dose was 100-200 mg/kg, and the drugs was respectively formulated and administered according to the scheme for each group. Blood samples were taken 5 min, 15 min, 30 min, 45 min, 1 hr, 2 hrs, 4 hrs and 8 hrs after administration. The concentration of each model antibiotic in the sample was detected by LC-MS and the pharmacokinetic parameters were calculated.
The next data set in a line: in vivo. To be noted: male, ICR, mouse.
The conditions of data set [3]: male, ICR, mouse, in vivo, sc.
Description: as §1
Where [4] appears, read: ICR male mice, in combination with recombinant human HAase for subcutaneous administration, single dose 100-200 mg/kg.
Where [5] appears, read: ICR male mice, administration by injection via tail vein, single dose 100-200 mg/kg.
Where [6] appears, read: ICR male mice, conventional subcutaneous administration, single dose 100-200 mg/kg.

Where two headings read alike, the source gives them in different places.

Description for in vivo: as §1

For the compound `C[C@@H](O)[C@H]1C(=O)N2C(C(=O)O)=C(S[C@@H]3CN[C@H](C(=O)Nc4cccc(C(=O)O)c4)C3)[C@H](C)[C@H]12` [Ertapenem], the “Final concentration of HAase (units/ml) 2000” value at HAase (antibiotic 30 mg/ml in physiological saline, HAase added to 2000 units/ml) worked out at 2016 units/ml. The “Final concentration of HAase (units/ml) 150” value on HAase (antibiotic 300 mg/ml in physiological saline, HAase added to 150 units/ml) is 156 units/ml. Moreover, in data set [1], the “appearance of the solution” value is “clear and transparent”. The Tmax was 15 min in data set [2] (setting [4]); 5 min in data set [2] (male, ICR, mouse, blood, iv); 15 min in data set [2] (male, ICR, mouse, blood, sc). Moreover, the area under the curve AUC(0-t) in data set [2] (male, ICR, mouse, blood, iv, ICR male mice, administration by injection via tail vein, single dose 100-200 mg/kg) was 450 µg·h/mL; in data set [2] (male, ICR, mouse, blood, sc, ICR male mice, conventional subcutaneous administration, single dose 100-200 mg/kg), 442 µg·h/mL; in data set [2] (male, ICR, mouse, blood, sc, ICR male mice, in combination with recombinant human HAase for subcutaneous administration, single dose 100-200 mg/kg), 459 µg·h/mL. In addition, the Cmax in data set [2] (male, ICR, mouse, blood, iv, Cmax, ICR male mice, administration by injection via tail vein, single dose 100-200 mg/kg) worked out at 368 µg/mL; in data set [2] (male, ICR, mouse, blood, sc, Cmax, ICR male mice, conventional subcutaneous administration, single dose 100-200 mg/kg), 318 µg/mL; in data set [2] (male, ICR, mouse, blood, sc, Cmax, ICR male mice, in combination with recombinant human HAase for subcutaneous administration, single dose 100-200 mg/kg) it was 333 µg/mL.
As for `CC(C)(O/N=C(\C(=O)N[C@@H]1C(=O)N2C(C(=O)[O-])=C(C[n+]3ccccc3)CS[C@H]12)c1csc(N)n1)C(=O)O` [Ceftazidime], the time to peak (Tmax) in “in vivo” (iv) is 5 min; in the data set “in vivo” (sc) it was 15 min. Also, in data set [1], the “appearance of the solution” value is “clear and transparent”.
Consider `CC1=C(C(=O)O)N2C(=O)[C@@H](NC(=O)[C@H](N)C3=CCC=CC3)[C@H]2SC1` [Cefradine], for which the “appearance of the solution” value in data set [1] is “clear and transparent”.
For the compound `CO/N=C(\C(=O)N[C@@H]1C(=O)N2C(C(=O)O)=C(CSc3nc(=O)c(=O)[nH]n3C)CS[C@H]12)c1csc(N)n1` [Ceftriaxone], the time to peak (Tmax) in data set [3] was 15 min; in the data set “in vivo” (iv), 5 min. Moreover, the “appearance of the solution” value in data set [1] was “clear and transparent”.
As for Teicoplanin, the “appearance of the solution” value in data set [1] is “clear and transparent”. In data set [2] (setting [5]), the AUClast was found to be 195 µg·h/mL, the Cmax turned out to be 148 µg/mL and the Tmax is 5 min. Moreover, in data set [2] (setting [6]), the AUClast is 201 µg·h/mL, the Cmax came to 121 µg/mL and the time to peak (Tmax) is reported as 15 min. Moreover, in data set [2] (setting [4]), the AUClast amounted to 210 µg·h/mL, the Cmax was 133 µg/mL and the time of peak concentration (Tmax) is given as 15 min.
